Assay [1] has as its system RPMI 8226 Human myeloma cells. The experiment in a line: MTT cell proliferation inhibition, RPMI 8226. The class given is cell-based. Particulars: RPMI 8226, 72 hours. As to the method: (§1) Human cancer cells were purchased from ATCC. The cells were cultured in a culture medium according to the work instruction of ATCC. A dose-response curve was drawn by XL-fitting to determine an IC50 value of a compound. […] Cell proliferation inhibition could be detected by a MTT method (3-(4,5-Dimethylthiazol-2-yl)-2,5-diphenyltetrazolium bromide, and MTT; and 3-(4,5-dimethyl thiazole-2)-2,5-diphenyltertazolium bromide, and thiazolyl blue).
(§2) The cells were cultured in a culture dish first, and the cells in a logarithmic growth phase were inoculated into a 96-well plate (3,000 to 5,000 adherent cells/well, 10,000 to 30,000 suspended cells/well) according to a specific number, with 100 microliters per well, and then cultured in an incubator of 5% CO2 and 37° C. […] An absorbance of a general control group should be a normal value between 0.8 and 1.2. After obtaining absorbance data, a change curve of an inhibition rate was fitted by GraphPad Prism6.03 software and an IC50 value was calculated.
(§3) Calculation of drug inhibition rate: relative cell proliferation inhibition rate=[(control group A570−experimental group A570)/control group […], wherein A570 represented the absorbance at 570 nm.

Assay [2] deals with HL-60 Human acute myelogenous leukemia. The experiment in a line: MTT cell proliferation inhibition, HL-60. Particulars: HL-60, 72 hours. The class given is cell-based. As to the method: as §1, §2, §3
The subject of another assay is U266 Human myeloma cells. The experiment in a line: MTT cell proliferation inhibition, U266. In kind it is cell-based. As to conditions: U-266, U266, 72 hours. As to the method: as §1, §2, §3
For the next assay, the target named is T1, Ret (V804M) (h) (Homo sapiens, UniProt P07949, V804M).
T1 construct: purchased Eurofins
T1 sequence (P07949 29-1114 V804M): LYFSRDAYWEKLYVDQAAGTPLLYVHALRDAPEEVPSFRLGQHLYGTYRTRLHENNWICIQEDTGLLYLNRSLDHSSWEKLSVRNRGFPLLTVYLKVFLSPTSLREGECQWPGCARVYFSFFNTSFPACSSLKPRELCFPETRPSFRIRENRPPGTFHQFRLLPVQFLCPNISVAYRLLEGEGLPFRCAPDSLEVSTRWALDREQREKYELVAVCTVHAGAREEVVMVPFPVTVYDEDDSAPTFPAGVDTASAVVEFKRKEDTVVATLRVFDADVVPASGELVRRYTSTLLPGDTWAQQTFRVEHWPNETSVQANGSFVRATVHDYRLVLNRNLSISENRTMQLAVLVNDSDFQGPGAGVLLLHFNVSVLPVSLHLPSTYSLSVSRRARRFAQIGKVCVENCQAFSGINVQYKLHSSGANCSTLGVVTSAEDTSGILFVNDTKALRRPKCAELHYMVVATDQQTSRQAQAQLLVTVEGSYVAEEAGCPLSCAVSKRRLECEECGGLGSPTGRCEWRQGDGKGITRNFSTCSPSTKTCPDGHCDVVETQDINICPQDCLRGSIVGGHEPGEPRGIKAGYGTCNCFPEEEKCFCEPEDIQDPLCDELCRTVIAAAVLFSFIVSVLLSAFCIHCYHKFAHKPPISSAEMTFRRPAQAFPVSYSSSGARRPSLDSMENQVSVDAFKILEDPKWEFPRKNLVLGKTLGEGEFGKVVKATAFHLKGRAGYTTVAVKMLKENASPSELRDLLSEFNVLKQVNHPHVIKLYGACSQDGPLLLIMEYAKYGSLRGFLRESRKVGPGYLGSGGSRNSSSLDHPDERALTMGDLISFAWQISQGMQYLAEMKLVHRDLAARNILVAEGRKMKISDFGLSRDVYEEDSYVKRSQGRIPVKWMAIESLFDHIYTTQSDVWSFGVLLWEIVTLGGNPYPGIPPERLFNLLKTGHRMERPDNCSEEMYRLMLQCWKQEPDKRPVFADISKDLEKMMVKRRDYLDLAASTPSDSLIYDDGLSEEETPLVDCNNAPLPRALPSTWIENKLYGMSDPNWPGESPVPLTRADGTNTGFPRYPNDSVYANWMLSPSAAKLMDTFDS
The experiment in a line: Radioisotope labeling kinase assay (Eurofins), Ret (V804M). In kind it is biochemical. As to the method:
An activity to a human recombinant protein kinase of a series of compounds was determined by a radioisotope labeling method, which was provided by Eurofins Company. A compound to be detected was mixed with a corresponding protein kinase buffer (20 mM propyl sulfonate (MOPS, […].), 1 mM EDTA, 0.10 β-mercaptoethanol, 0.010 Brij-35, […], and 1 mg/mL BSA), the mixture was added into a reaction system (100 μM reaction substrate […], 8 mM MOPS with a pH value of 7.0, 10 mM MgAcetate, 0.2 mM EDTA, and a certain concentration of γ-^33P-ATP). After adding an MgATP composite solution, the reaction was started at room temperature for 40 minutes, and the reaction was terminated by adding 5 μl of […] solution. Then, 10 μl of reaction solution was dropwise added onto a filter and washed with 75 mM phosphoric acid solution for three times, 5 minutes each time, then washed with methanol once again, and dried and subjected to scintillation counting.

The term IC50 denotes the midpoint of a concentration-inhibition curve. Read a low IC50 as greater potency in that assay.

On to `O=C(/C=C/CN1CCCC1)Nc1cc2cc(c1)Nc1nccc(n1)-c1cccc(c1)COC/C=C/COC2` [XVI-1], for which the IC50 in assay [1] is 463 nM; in assay [2], 326 nM; in the assay on U266 Human myeloma cells, 614 nM.

Regarding `C1=C/COCc2cccc(c2)-c2ccnc(n2)Nc2cc(cc(OC/C=C/CN3CCCC3)c2)COC/1` [XVI-12], half-maximal inhibition on Ret (V804M) (h) (IC50) was put at 122 nM.

For `O=C(/C=C/CN1CCOCC1)Nc1cc2cc(c1)Nc1nccc(n1)-c1cccc(c1)COC/C=C/COC2` [XVI-3], the IC50 came out at 2040 nM in assay [1], 866 nM in assay [2] and 2700 nM with U266 Human myeloma cells.

The record behind these values is US20240425518A1, “N-MACROCYCLIC AMIDE COMPOUNDS, PREPARATION METHODS THEREOF AND APPLICATIONS THEREOF AS MEDICAMENTS” (Chengdu FANXI Biopharma Co., Ltd., priority 2023, published 2024).
